Key:
CBL-B protein = CBL-B protein (Homo sapiens, UniProt Q13191); assay: CBL-B binding experiment (Streptavidin-Tb cryptate / Ligand L1 displacement); conditions: 8 nM CBL-B protein, 25° C., 60 minutes; Ki=Relative IC50/2
Method in brief: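 Compounds in a 10-point DMSO series met 8 nM CBL-B protein in HEPES pH 7.5/NaCl/Triton/TCEP/BSA buffer at 25° C. for 60 min. A further 60 min at room temperature preceded the luminescence read, normalised to no-protein and DMSO wells. Ki was taken as relative IC50 divided by 2.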

[1] = test system: anti-CD3 activated human PBMCs; assay: Effect of compounds on the level of IL-2 secretion by anti-CD3 activated human PBMCs (IL-2 ELISA); assay type: cell-based; conditions: compound concentration at which fold change in IL-2 = 5; hPBMCs, CD3 antibody 2 μg/mL, 48 h, compound from 3 μM
Method in brief: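 Human PBMCs were preincubated 1 h, then exposed to compound (10 points, 3-fold from 3 μM final) with anti-CD3 at 2 μg/mL for 48 h at 37° C. Supernatant IL-2 was measured by ELISA as fold change over DMSO.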

Chain of CBL-B protein (Q13191 whole entry): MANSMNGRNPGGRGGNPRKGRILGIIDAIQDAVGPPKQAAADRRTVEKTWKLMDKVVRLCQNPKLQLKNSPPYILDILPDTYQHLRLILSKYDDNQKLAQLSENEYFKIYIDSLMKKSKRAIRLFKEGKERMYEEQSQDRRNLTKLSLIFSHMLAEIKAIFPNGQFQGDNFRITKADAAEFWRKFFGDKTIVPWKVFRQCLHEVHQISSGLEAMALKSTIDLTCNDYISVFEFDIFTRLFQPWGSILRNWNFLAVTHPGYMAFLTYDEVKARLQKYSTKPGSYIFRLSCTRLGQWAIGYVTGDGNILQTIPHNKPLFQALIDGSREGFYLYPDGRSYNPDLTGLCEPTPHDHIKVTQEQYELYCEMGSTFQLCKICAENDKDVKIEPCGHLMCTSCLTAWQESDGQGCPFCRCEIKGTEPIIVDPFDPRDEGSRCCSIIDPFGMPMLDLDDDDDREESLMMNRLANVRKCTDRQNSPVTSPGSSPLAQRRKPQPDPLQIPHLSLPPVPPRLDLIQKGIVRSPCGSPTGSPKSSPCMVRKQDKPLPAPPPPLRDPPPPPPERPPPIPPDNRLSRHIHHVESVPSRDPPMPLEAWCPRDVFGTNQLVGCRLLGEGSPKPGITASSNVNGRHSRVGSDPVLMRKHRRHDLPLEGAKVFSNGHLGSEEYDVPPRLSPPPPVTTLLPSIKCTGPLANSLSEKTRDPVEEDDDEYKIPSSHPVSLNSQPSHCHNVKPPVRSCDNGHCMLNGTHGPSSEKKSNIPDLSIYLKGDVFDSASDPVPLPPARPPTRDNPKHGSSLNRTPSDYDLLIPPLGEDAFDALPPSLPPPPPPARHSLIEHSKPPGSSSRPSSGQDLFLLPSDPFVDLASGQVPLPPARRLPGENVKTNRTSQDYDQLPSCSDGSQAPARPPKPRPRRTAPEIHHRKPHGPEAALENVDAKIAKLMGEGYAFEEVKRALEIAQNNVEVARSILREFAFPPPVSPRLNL

Structure (SMILES) | Ki (CBL-B protein) | IL-2 CFC=5/nM [1]
CCN(Cc1cc2c(C(F)(F)F)cn(-c3cccc([C@]4(c5nncn5C)C[C@@H](OC)C4)c3)c(=O)c2[nH]1)CC(C)C [Compound T149, 2-((ethyl(isobutyl)amino)methyl)-6-(3-((1s,3s)-3-methoxy-1-(4-methyl-4H-1,2,4-triazol-3-yl)cyclobutyl)phenyl)-4-(trifluoromethyl)-1,6-dihydro-7H-pyrrolo[2,3-c]pyridin-7-one] | < 50 nM | <500 nM
CO[C@H]1C[C@](c2cccc(-n3cc(C(F)(F)F)c4cc(CNCCC5CC5)[nH]c4c3=O)c2)(c2nncn2C)C1 [Compound T154, 2-(((2-cyclopropylethyl)amino)methyl)-6-(3-((1r,3r)-3-methoxy-1-(4-methyl-4H-1,2,4-triazol-3-yl)cyclobutyl)phenyl)-4-(trifluoromethyl)-1,6-dihydro-7H-pyrrolo[2,3-c]pyridin-7-one] | < 50 nM | <500 nM
C[C@H](NCc1cc2c(C(F)(F)F)cn(-c3cccc([C@]4(c5nncn5C)C[C@@H](C)C4)c3)c(=O)c2[nH]1)C(C)(C)C [Compound T158, 2-((((S)-3,3-dimethylbutan-2-yl)amino)methyl)-6-(3-((1s,3R)-3-methyl-1-(4-methyl-4H-1,2,4-triazol-3-yl)cyclobutyl)phenyl)-4-(trifluoromethyl)-1,6-dihydro-7H-pyrrolo[2,3-c]pyridin-7-one] | < 50 nM | <500 nM
CCN(Cc1cc2c(C(F)(F)F)cn(-c3cccc([C@]4(c5nncn5C)C[C@@H](C)C4)c3)c(=O)c2[nH]1)C(C)C [Compound T159, 2-((ethyl(isopropyl)amino)methyl)-6-(3-((1s,3s)-3-methyl-1-(4-methyl-4H-1,2,4-triazol-3-yl)cyclobutyl)phenyl)-4-(trifluoromethyl)-1,6-dihydro-7H-pyrrolo[2,3-c]pyridin-7-one] | < 50 nM | <500 nM
CCCNCc1cc2c(C(F)(F)F)cn(-c3cccc(C4(c5nncn5C)CCC4)c3)c(=O)c2[nH]1 [Compound T160, 6-(3-(1-(4-methyl-4H-1,2,4-triazol-3-yl)cyclobutyl)phenyl)-2-((propylamino)methyl)-4-(trifluoromethyl)-1,6-dihydro-7H-pyrrolo[2,3-c]pyridin-7-one] | < 50 nM | <500 nM
Cn1cnnc1C1(c2cccc(-n3cc(C(F)(F)F)c4cc(CNC(C)(C)C)[nH]c4c3=O)c2)CCC1 [Compound T161, 2-((tert-butylamino)methyl)-6-(3-(1-(4-methyl-4H-1,2,4-triazol-3-yl)cyclobutyl)phenyl)-4-(trifluoromethyl)-1,6-dihydro-7H-pyrrolo[2,3-c]pyridin-7-one] | < 50 nM | <500 nM
Cn1cnnc1C1(c2cccc(-n3cc(C(F)(F)F)c4cc(CNCC(C)(C)C)[nH]c4c3=O)c2)CCC1 [Compound T162, 6-(3-(1-(4-methyl-4H-1,2,4-triazol-3-yl)cyclobutyl)phenyl)-2-((neopentylamino)methyl)-4-(trifluoromethyl)-1,6-di hydro-7H-pyrrolo[2,3-c]pyridin-7-one] | < 50 nM | <500 nM
CCN(Cc1cc2c(C(F)(F)F)cn(-c3cccc([C@]4(c5nncn5C)C[C@@H](OC)C4)c3)c(=O)c2[nH]1)C(C)C [Compound T192] | < 50 nM | <500 nM

Further lines, with some results ahead:

Ki (CBL-B protein) | Structure (SMILES) | IL-2 CFC=5/nM [1]
< 50 nM | C[C@H]1CCCN(Cc2cc3c(C(F)(F)F)cn(-c4cccc([C@]5(c6nncn6C)C[C@@H](OC(F)(F)F)C5)c4)c(=O)c3[nH]2)C1 [Compound T130, 6-(3-((1s,3R)-1-(4-methyl-4H-1,2,4-triazol-3-yl)-3-(trifluoromethoxy)cyclobutyl)phenyl)-2-(((S)-3-methylpiperidin-1-yl)methyl)-4-(trifluoromethyl)-1,6-dihydro-7H-pyrrolo[2,3-c]pyridin-7-one] | <500 nM
< 50 nM | C[C@H]1CCCN(Cc2cc3c(C(F)(F)F)cn(-c4cccc([C@]5(c6nncn6C)C[C@H](OC(F)(F)F)C5)c4)c(=O)c3[nH]2)C1 [Compound T131, 6-(3-((1r,3S)-1-(4-methyl-4H-1,2,4-triazol-3-yl)-3-(trifluoromethoxy)cyclobutyl)phenyl)-2-(((S)-3-methylpiperidin-1-yl)methyl)-4-(trifluoromethyl)-1,6-dihydro-7H-pyrrolo[2,3-c]pyridin-7-one] | <500 nM
< 50 nM | CO[C@H]1C[C@@](c2cccc(-n3cc(C(F)(F)F)c4cc(CN5CCC[C@H](C)C5)[nH]c4c3=O)c2)(c2nncn2C)C1 [Compound T134, 6-(3-((1s,3R)-3-methoxy-1-(4-methyl-4H-1,2,4-triazol-3-yl)cyclobutyl)phenyl)-2-(((S)-3-methylpiperidin-1-yl)methyl)-4-(trifluoromethyl)-1,6-dihydro-7H-pyrrolo[2,3-c]pyridin-7-one] | <500 nM
< 50 nM | CO[C@H]1C[C@](c2cccc(-n3cc(C(F)(F)F)c4cc(CN5CCC[C@H](C)C5)[nH]c4c3=O)c2)(c2nncn2C)C1 [Compound T135, 6-(3-((1r,3S)-3-methoxy-1-(4-methyl-4H-1,2,4-triazol-3-yl)cyclobutyl)phenyl)-2-(((S)-3-methylpiperidin-1-yl)methyl)-4-(trifluoromethyl)-1,6-dihydro-7H-pyrrolo[2,3-c]pyridin-7-one] | <500 nM
< 50 nM | CO[C@H]1C[C@@](c2cccc(-n3cc(C(F)(F)F)c4cc(CN5CC6CCC(C6)C5)[nH]c4c3=O)c2)(c2nncn2C)C1 [Compound T145, 2-((3-azabicyclo[3.2.1]octan-3-yl)methyl)-6-(3-((1s,3s)-3-methoxy-1-(4-methyl-4H-1,2,4-triazol-3-yl)cyclobutyl)phenyl)-4-(trifluoromethyl)-1,6-dihydro-7H-pyrrolo[2,3-c]pyridin-7-one] | <500 nM
< 50 nM | CO[C@H]1C[C@@](c2cccc(-n3cc(C(F)(F)F)c4cc(CN5CCCC6(CC6)C5)[nH]c4c3=O)c2)(c2nncn2C)C1 [Compound T147, 2-((5-azaspiro[2.5]octan-5-yl)methyl)-6-(3-((1s,3s)-3-methoxy-1-(4-methyl-4H-1,2,4-triazol-3-yl)cyclobutyl)phenyl)-4-(trifluoromethyl)-1,6-dihydro-7H-pyrrolo[2,3-c]pyridin-7-one] | <500 nM
< 50 nM | CO[C@H]1C[C@](c2cccc(-n3cc(C(F)(F)F)c4cc(CN5CCCC(C(F)F)C5)[nH]c4c3=O)c2)(c2nncn2C)C1 (some centres unmarked) [Compound T156, 2-((3-(difluoromethyl)piperidin-1-yl)methyl)-6-(3-((1r,3r)-3-methoxy-1-(4-methyl-4H-1,2,4-triazol-3-yl)cyclobutyl)phenyl)-4-(trifluoromethyl)-1,6-dihydro-7H-pyrrolo[2,3-c]pyridin-7-one] | <500 nM
< 50 nM | Cn1cnnc1[C@]1(c2cccc(-n3cc(C(F)(F)F)c4cc(CN5CCCC(C(F)F)C5)[nH]c4c3=O)c2)C[C@H](C)C1 (some centres unmarked) [Compound T157, 2-((3-(difluoromethyl)piperidin-1-yl)methyl)-6-(3-((1s,3s)-3-methyl-1-(4-methyl-4H-1,2,4-triazol-3-yl)cyclobutyl)phenyl)-4-(trifluoromethyl)-1,6-dihydro-7H-pyrrolo[2,3-c]pyridin-7-one] | <500 nM

— patent US20260217706A1, “HETEROCYCLIC COMPOUNDS, PREPARATION METHOD THEREFOR AND USE THEREOF” (GUANGZHOU YUFAN NANTU BIOTECHNOLOGIES CO., LTD, priority 2023, published 2026)
